Tests used:
E. coli = test: Inhibition zone on agar plates; assay type: cell-based; conditions: liquid applied to agar plate
Protocol: A bacterial suspension (0.1 ml) was spread onto tryptone soya agar plates. HEPA filters with ionic liquid coatings were cut into small pieces. They were then placed on the center of plates spread by bacteria. The plates were incubated at room temperature for 48 hours.

[1] = tested on: A549 lung epithelial cells
Protocol: A549 lung epithelial cells were grown in 25 cm^2 flasks with Dulbecco's modified Eagle's medium (DMEM) supplemented with 10% fetal bovine serum, 100 U/ml streptomycin, and 50 U/ml penicillin at 37° C. in a humidified atmosphere with 5% CO2. A subculture of confluent monolayers was carried out using 0.05% trypsin, 0.53 mmol/l ethylenediaminetetraacetic acid in calcium and magnesium-free Hanks balanced salt solution (HBSS). […] For the 3-(4,5-dimethylthiazol-2-yl)-2,5-diphenyltetrazolium bromide (MTT) assay, cells were plated in 96-well microplates at 2×10^5 cell/well for 6 hours, then the media were gently changed to remove non-adherent cells. The plates were used for assays after 24 hours. […] The media were replaced with 100 μl of dimethyl sulfoxide for 20 minutes, and the absorbances at 595 nm were determined using a microplate reader. […] The inhibition rate, I, is given by [formula] where C is the absorbance of the control group containing the cell solution and MTT, which indicates the number of maximum living cells, S is the absorbance of the sample group containing the cell solution, ionic liquids and MTT, which indicates the number of living cells in the ionic liquids, and B is the absorbance of the blank group containing only pure culture media and MTT, which is set reduce interference by the natural environment.

SMILES	inhibition zone for E. coli (E. coli)	cytotoxicity (inhibition rate) for A549 lung epithelial cells [1]
CCO [ethanol, reference compound]	no clear inhibition zones	
CCn1cc[n+](C)c1.F[B-](F)(F)F [EMIM-BF4, 1-ethyl-3-methylimidazolium tetrafluoroborate]	obvious inhibition	lowest cytotoxicity
